Results as given in ChEMBL document CHEMBL5528087, “RNA-Small-Molecule Interaction: Challenging the "Undruggable" Tag” (J Med Chem, 2024).

Columns and labels:
[1] = Binding affinity to SARS-Cov-2 RNA pseudoknot assessed as dissociation constant; parameters: species or system Severe acute respiratory syndrome coronavirus 2
[2] = biological target: T1, Non-structural protein 4b (Hepacivirus hominis, UniProt F5B4I0); assay: Binding affinity to Hepatitis C virus genotype 1 NS4B assessed as inhibition constant
T1 sequence (F5B4I0 whole entry): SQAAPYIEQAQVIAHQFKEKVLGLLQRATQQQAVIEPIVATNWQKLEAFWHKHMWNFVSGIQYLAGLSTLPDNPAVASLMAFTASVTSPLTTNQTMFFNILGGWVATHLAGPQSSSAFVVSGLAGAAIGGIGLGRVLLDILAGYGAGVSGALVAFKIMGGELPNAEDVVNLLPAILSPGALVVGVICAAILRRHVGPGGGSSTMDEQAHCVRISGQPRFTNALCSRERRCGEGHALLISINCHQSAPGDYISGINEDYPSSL

Quadruplex DNA [3] = assay: Binding affinity to TERRA G-Quadruplex (unknown origin) assessed as dissociation constant; assay type: nucleic-acid assay
Quadruplex DNA [4] = assay: Binding affinity to TERRA G-Quadruplex (unknown origin) assessed as melting temperature; assay type: nucleic-acid assay
[5] = biological target: T2, Survival of motor neuron-related-splicing factor 30 (Homo sapiens) (UniProt O75940); assay: Inhibition of SMNDC1 (unknown origin) assessed as fold increase at 40 uM
T2 sequence (whole entry): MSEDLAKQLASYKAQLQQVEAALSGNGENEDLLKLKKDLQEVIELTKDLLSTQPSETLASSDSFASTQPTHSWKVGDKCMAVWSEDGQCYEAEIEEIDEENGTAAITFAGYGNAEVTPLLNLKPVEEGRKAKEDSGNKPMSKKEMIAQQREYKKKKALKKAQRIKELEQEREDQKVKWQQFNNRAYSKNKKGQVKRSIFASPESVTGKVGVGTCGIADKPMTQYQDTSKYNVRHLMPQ

preQ1 riboswitch [6] = assay: Binding affinity to Thermoanaerobacter tengcongensis 5-Cy5-PreQ1-RS RNA assessed as dissociation constant; assay type: nucleic-acid assay, Caldanaerobacter subterraneus subsp. tengcongensis
preQ1 riboswitch [7] = assay: Binding affinity to Bacillus subtilis 5-Cy5-PreQ1-RS RNA assessed as dissociation constant; assay type: nucleic-acid assay

SMILES: CCOC(=O)c1ccccc1NC(=O)N1CCCN(Cc2csc(C)n2)CC1
- Kd [1]: 210 µM

SMILES: CN(C)CCCNc1nc2ccc(N)cc2o1
- Ki [2]: 6 µM

SMILES: O=c1c2c(-c3ccco3)csc2nc2n1Cc1nc3scc(-c4ccco4)c3c(=O)n1C2
- Kd (Quadruplex DNA [3]): 8.8 µM
- ΔTm (Quadruplex DNA [4]): > 5 °C

SMILES: O=C(c1cnc(C(=O)c2c[nH]c3cc(O)ccc23)[nH]1)c1c[nH]c2ccccc12
- fold change (FC) [5]: 1.5

SMILES: NCCOc1ccc2oc3ccccc3c2c1
- Kd (preQ1 riboswitch [6]): 0.457 µM
- Kd (preQ1 riboswitch [7]): 0.534 µM
